Assay results taken from patent publication US5202315A, “Cephalosporin compounds” (Lucky, Ltd., priority 1989, dated 1993).
≈ marks a conversion by molar mass, not a printed value. Where two headings read alike, the source gives them in different places.

Columns and labels:
[1] = In-vivo absorbency (plasma concentrations & pharmacokinetic parameters); set-up: species or system SD rat (male); details: plasma, SD male rat, iv 20 mg/kg, read-out: Plasma Conc.
[2] = system: Staphylococcus aureus methicillin resistant; experiment: Antibacterial activity against clinically isolated strains, MIC; format: cell-based; details: methicillin resistant, 7 clinical isolates, broth microdilution test; for MIC90: read-out: MIC 90%
[3] = system: Pseudomonas aeruginosa ATCC 10145; experiment: Antibacterial activity, MIC; format: cell-based; details: ATCC10145, ATCC 10145, agar two-fold dilution, 37° C., 20 hours, read-out: MIC
Outline: (§1)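 Agar two-fold dilution method: compound serially diluted two-fold in Mueller-Hinton agar, spotted with 2 μl of a 10^7 CFU/ml inoculum of each standard strain, then incubated at 37 °C for 20 h.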

[4] = system: Staphylococcus epidermidis ATCC 12228; experiment: Antibacterial activity, MIC; format: cell-based; details: ATCC12228, ATCC 12228, agar two-fold dilution, 37° C., 20 hours, read-out: MIC
Outline: as §1

[5] = system: Shigella sonnei ATCC 11060; experiment: Antibacterial activity, MIC; format: cell-based; details: ATCC11060, ATCC 11060, agar two-fold dilution, 37° C., 20 hours, read-out: MIC
Outline: as §1

[6] = system: Morganella morganii ATCC 8076h; experiment: Antibacterial activity, MIC; format: cell-based; details: ATCC8076H, agar two-fold dilution, 37° C., 20 hours
Outline: as §1

[7] = system: Salmonella typhimurium ATCC 14028; experiment: Antibacterial activity, MIC; format: cell-based; details: Salmonella enterica; ATCC 14028; agar two-fold dilution, 37° C., 20 hours; read-out: MIC
Outline: as §1

[8] = system: Bacillus megaterium ATCC 9885; experiment: Antibacterial activity, MIC; format: cell-based; details: Priestia megaterium, ATCC9885; ATCC 9885; agar two-fold dilution, 37° C., 20 hours; read-out: MIC
Outline: as §1

[9] = system: Staphylococcus aureus ATCC 10537; experiment: Antibacterial activity, MIC; format: cell-based; details: ATCC10537, ATCC 10537, agar two-fold dilution, 37° C., 20 hours, read-out: MIC
Outline: as §1

[10] = system: Acinetobacter calcoaceticus ATCC 15473; experiment: Antibacterial activity, MIC; format: cell-based; details: ATCC15473, ATCC 15473, agar two-fold dilution, 37° C., 20 hours, read-out: MIC
Outline: as §1

[11] = system: Pseudomonas aeruginosa ATCC 25619; experiment: Antibacterial activity, MIC; format: cell-based; details: ATCC25619, ATCC 25619, agar two-fold dilution, 37° C., 20 hours, read-out: MIC
Outline: as §1

[12] = system: Citrobacter freundii ATCC 8090; experiment: Antibacterial activity, MIC; format: cell-based; details: ATCC8090, ATCC 8090, agar two-fold dilution, 37° C., 20 hours, read-out: MIC
Outline: as §1

[13] = system: Enterobacter aerogenes ATCC 29751; experiment: Antibacterial activity, MIC; format: cell-based; details: Klebsiella aerogenes, ATCC29751; ATCC 29751; agar two-fold dilution, 37° C., 20 hours; read-out: MIC
Outline: as §1

[14] = system: Escherichia coli ATCC 10536; experiment: Antibacterial activity, MIC; format: cell-based; details: ATCC10536, agar two-fold dilution, 37° C., 20 hours
Outline: as §1

[15] = system: Serratia marcescens ATCC 27117; experiment: Antibacterial activity, MIC; format: cell-based; details: ATCC27117, ATCC 27117, agar two-fold dilution, 37° C., 20 hours, read-out: MIC
Outline: as §1

[16] = system: Enterobacter cloacae ATCC 27508; experiment: Antibacterial activity, MIC; format: cell-based; details: ATCC27508, ATCC 27508, agar two-fold dilution, 37° C., 20 hours, read-out: MIC
Outline: as §1

[17] = system: Klebsiella pneumoniae ATCC 10031; experiment: Antibacterial activity, MIC; format: cell-based; details: ATCC10031, ATCC 10031, agar two-fold dilution, 37° C., 20 hours, read-out: MIC
Outline: as §1

[18] = system: Providencia rettgeri ATCC 9250; experiment: Antibacterial activity, MIC; format: cell-based; details: ATCC9250, agar two-fold dilution, 37° C., 20 hours
Outline: as §1

[19] = system: Bacillus cereus ATCC 11778; experiment: Antibacterial activity, MIC; format: cell-based; details: ATCC11778, ATCC 11778, agar two-fold dilution, 37° C., 20 hours, read-out: MIC
Outline: as §1

[20] = system: Proteus vulgaris ATCC 6059; experiment: Antibacterial activity, MIC; format: cell-based; details: ATCC6059, ATCC 6059, agar two-fold dilution, 37° C., 20 hours, read-out: MIC
Outline: as §1

[21] = system: Shigella flexneri ATCC 11836; experiment: Antibacterial activity, MIC; format: cell-based; details: ATCC11836, agar two-fold dilution, 37° C., 20 hours
Outline: as §1

[22] = system: Staphylococcus aureus ATCC 6538p; experiment: Antibacterial activity, MIC; format: cell-based; details: ATCC6538P, ATCC 6538p, agar two-fold dilution, 37° C., 20 hours, read-out: MIC
Outline: as §1

[23] = system: Escherichia coli ATCC 25922; experiment: Antibacterial activity, MIC; format: cell-based; details: ATCC25922, agar two-fold dilution, 37° C., 20 hours
Outline: as §1

[24] = system: Pseudomonas aeruginosa ATCC 27853; experiment: Antibacterial activity, MIC; format: cell-based; details: ATCC27853, ATCC 27853, agar two-fold dilution, 37° C., 20 hours, read-out: MIC
Outline: as §1

Escherichia coli = experiment: Antibacterial activity against clinically isolated strains, MIC; format: cell-based; details: 38 clinical isolates, broth microdilution test
Pseudomonas aeruginosa = experiment: as above; format: cell-based
Klebsiella pneumoniae = experiment: as above; format: cell-based; details: 10 clinical isolates, broth microdilution test; for MIC90: read-out: MIC 90%
[25] = system: Staphylococcus aureus methicillin susceptible; experiment: as above; format: cell-based; details: methicillin susceptible, 42 clinical isolates, broth microdilution test; for MIC90: read-out: MIC 90%
[26] = 54 clinical isolates, broth microdilution test
[27] = 54 clinical isolates, broth microdilution test, read-out: MIC 90%

SMILES	concentration at 1 min [1] [ng/mL]	concentration at 2.5 min [1] [ng/mL]	concentration at 5 min [1] [ng/mL]	concentration at 10 min [1] [ng/mL]	concentration at 20 min [1] [ng/mL]	concentration at 40 min [1] [ng/mL]	MIC50 [2] [µg/mL]	MIC90 [2] [µg/mL]	MIC [3] [µg/mL]	MIC [4] [µg/mL]	MIC [5] [µg/mL]	MIC [6] [µg/mL]	MIC [7] [µg/mL]	MIC [8] [µg/mL]	MIC [9] [µg/mL]	MIC [10] [µg/mL]	MIC [11] [µg/mL]	MIC [12] [µg/mL]	MIC [13] [µg/mL]	MIC [14] [µg/mL]	also measured
CC(O/N=C(\C(=O)NC1C(=O)N2C(C(=O)[O-])=C(CSc3nc(N)cc(N)[n+]3C)CSC12)c1csc(N)n1)C(=O)O (stereo not shown) [Compound I-4]	64000	42000	32000	14000	7300	4500	> 32	> 32	2 (≈ 3.28 µM)	2 (≈ 3.28 µM)	0.031 (≈ 0.0508 µM)	≤ 0.008	0.13 (≈ 0.213 µM)	1 (≈ 1.64 µM)	2 (≈ 3.28 µM)	4 (≈ 6.56 µM)	2 (≈ 3.28 µM)	0.063 (≈ 0.103 µM)	1 (≈ 1.64 µM)	0.063 (≈ 0.103 µM)	MIC [2]: > 32 µg/mL; MIC [15]: 0.063 µg/mL (≈ 0.103 µM); MIC [16]: 0.016 µg/mL (≈ 0.0262 µM); MIC [17]: 0.031 µg/mL (≈ 0.0508 µM); MIC [18]: ≤ 0.008 µg/mL; MIC [19]: > 128 µg/mL; MIC [20]: 0.031 µg/mL (≈ 0.0508 µM); MIC [21]: 0.031 µg/mL (≈ 0.0508 µM); MIC [22]: 4 µg/mL (≈ 6.56 µM); MIC [23]: 0.031 µg/mL (≈ 0.0508 µM); MIC [24]: 1 µg/mL (≈ 1.64 µM); MIC50 (Escherichia coli): 0.031 µg/mL (≈ 0.0508 µM); MIC90 (Escherichia coli): 0.063 µg/mL (≈ 0.103 µM); MIC90 (Pseudomonas aeruginosa): 16 µg/mL (≈ 26.2 µM); MIC50 (Pseudomonas aeruginosa; [26]): 4 µg/mL (≈ 6.56 µM); MIC50 (Klebsiella pneumoniae): 0.031 µg/mL (≈ 0.0508 µM); MIC90 (Klebsiella pneumoniae): 0.13 µg/mL (≈ 0.213 µM); MIC50 [25]: 4 µg/mL (≈ 6.56 µM); MIC90 [25]: 4 µg/mL (≈ 6.56 µM)
CC[n+]1c(N)cc(N)nc1SCC1=C(C(=O)[O-])N2C(=O)C(NC(=O)/C(=N\OC(C)(C)C(=O)O)c3csc(N)n3)C2SC1 (stereo not shown) [Compound I-2]	55000	33000	22000	14000	7300	4500	> 128	> 128	2 (≈ 3.14 µM)	1 (≈ 1.57 µM)	0.063 (≈ 0.0988 µM)	≤ 0.008	0.25 (≈ 0.392 µM)	0.5 (≈ 0.784 µM)	2 (≈ 3.14 µM)	4 (≈ 6.27 µM)	1 (≈ 1.57 µM)	0.13 (≈ 0.204 µM)	2 (≈ 3.14 µM)	0.063 (≈ 0.0988 µM)	MIC [15]: 0.13 µg/mL (≈ 0.204 µM); MIC [16]: 0.031 µg/mL (≈ 0.0486 µM); MIC [17]: 0.063 µg/mL (≈ 0.0988 µM); MIC [18]: ≤ 0.008 µg/mL; MIC [19]: 64 µg/mL (≈ 100 µM); MIC [20]: 0.031 µg/mL (≈ 0.0486 µM); MIC [21]: 0.031 µg/mL (≈ 0.0486 µM); MIC [22]: 2 µg/mL (≈ 3.14 µM); MIC [23]: 0.063 µg/mL (≈ 0.0988 µM); MIC [24]: 1 µg/mL (≈ 1.57 µM); MIC50 (Escherichia coli): 0.063 µg/mL (≈ 0.0988 µM); MIC90 (Escherichia coli): 0.13 µg/mL (≈ 0.204 µM); MIC50 (Pseudomonas aeruginosa; [26]): 2 µg/mL (≈ 3.14 µM); MIC90 (Pseudomonas aeruginosa; [27]): 4 µg/mL (≈ 6.27 µM); MIC50 (Klebsiella pneumoniae): 0.13 µg/mL (≈ 0.204 µM); MIC90 (Klebsiella pneumoniae): 0.13 µg/mL (≈ 0.204 µM); MIC50 [25]: 2 µg/mL (≈ 3.14 µM); MIC90 [25]: 2 µg/mL (≈ 3.14 µM)
C[n+]1c(N)cc(N)nc1SCC1=C(C(=O)[O-])N2C(=O)C(NC(=O)/C(=N\OC(C)(C)C(=O)O)c3csc(N)n3)[C@H]2SC1 (stereo partly shown) [Compound I-1, 7-[(Z)-2-(2-aminothiazol-4-yl)-2-(2-carboxyprop-2-oxyimino)acetamido]-3-(4,6-diamino-1-methylpyrimidinium-2-yl) thiomethyl-3-cephem-4-carboxylate]	152000	101000	65000	45000	29000	14000	> 128	> 128	2 (≈ 3.21 µM)	1 (≈ 1.6 µM)	0.031 (≈ 0.0497 µM)	≤ 0.008	0.13 (≈ 0.208 µM)	0.25 (≈ 0.401 µM)	1 (≈ 1.6 µM)	2 (≈ 3.21 µM)	1 (≈ 1.6 µM)	0.063 (≈ 0.101 µM)	1 (≈ 1.6 µM)	0.063 (≈ 0.101 µM)	MIC [15]: 0.063 µg/mL (≈ 0.101 µM); MIC [16]: 0.016 µg/mL (≈ 0.0257 µM); MIC [17]: 0.063 µg/mL (≈ 0.101 µM); MIC [18]: ≤ 0.008 µg/mL; MIC [19]: 64 µg/mL (≈ 103 µM); MIC [20]: 0.031 µg/mL (≈ 0.0497 µM); MIC [21]: 0.031 µg/mL (≈ 0.0497 µM); MIC [22]: 2 µg/mL (≈ 3.21 µM); MIC [23]: 0.063 µg/mL (≈ 0.101 µM); MIC [24]: 1 µg/mL (≈ 1.6 µM); MIC50 (Escherichia coli): 0.063 µg/mL (≈ 0.101 µM); MIC90 (Escherichia coli): 0.13 µg/mL (≈ 0.208 µM); MIC50 (Pseudomonas aeruginosa; [26]): 1 µg/mL (≈ 1.6 µM); MIC90 (Pseudomonas aeruginosa; [27]): 4 µg/mL (≈ 6.41 µM); MIC50 (Klebsiella pneumoniae): 0.063 µg/mL (≈ 0.101 µM); MIC90 (Klebsiella pneumoniae): 0.13 µg/mL (≈ 0.208 µM); MIC50 [25]: 2 µg/mL (≈ 3.21 µM); MIC90 [25]: 2 µg/mL (≈ 3.21 µM)
